# Data from patent publication US8481551B2, “Gyrase and topoisomerase IV inhibitors” (Vertex Pharmaceuticals Incorporated, priority 2011, dated 2013).
# Counter-ions that a name gives are not always drawn. Like-named read-outs stand apart in the source and are kept apart here.
# Assays:
# [1] = system: β-haemolytic streptococci (Groups A, B, C and G); assay: Gyrase MIC, microdilution broth method (Protocol 1); assay type: cell-based; conditions: 28 isolates tested
# Neisseria gonorrhoeae = assay: Gyrase MIC, agar dilution method (Protocol 3); assay type: cell-based; conditions: for MIC90 / MIC Range: Neisseria gonorrhoeae, 13 isolates tested
# [2] = system: Bacteroides and Parabacter spp.; assay: Gyrase MIC, agar dilution method (Protocol 3); assay type: cell-based; conditions: 26 isolates tested
# Peptostreptococcus spp. = assay: Gyrase MIC, agar dilution method (Protocol 3); assay type: cell-based; conditions: 11 isolates tested
# Mycobacterium avium = assay: MIC determination procedure for Mycobacterium species (Protocol 4); assay type: cell-based
# Nocardia caviae = assay: as above; assay type: cell-based; conditions: Nocardia otitidiscaviarum
# [3] = system: Mycobacterium tuberculosis; assay: Mycobacterium tuberculosis serum shift MIC assay (Protocol 5); assay type: cell-based; conditions: ATCC 35801 / ERDMAN
# Excerpt: Protocol 5. Protocol for Mycobacterium tuberculosis Serum Shift MIC Assay
# Media Prep: • 1. […] It was important that all media and supplements were sterilized prior to MICs. • 2. Prepared all media below and inoculated as described in next section. Tested all compounds against Mtb using each media. • a. […] 7H9+0.2% glycerol+2 g/L dextrose+0.85 g/L NaCl+0.003 g/L catalase (0% FBS). • c. 2×7H9+0.2% glycerol+2 g/L dextrose+0.85 g/L NaCl+0.003 g/L catalase combined with equal volume Fetal Bovine Serum (50% FBS).
# Inoculum Prep: • 1. […] Typically plates were two to three weeks of age when used for this assay due to the slow growth of this organism in culture. • 2. Vortexed well, then sonicated in water bath for 30 sec providing a suspension of ˜10^8 cells/ml. […] Prepared inoculum in each of the three media formulations by diluting the BBL Prompt suspension 1/200 (for example: transferred 0.2 ml of cells to 40 ml of medium) to obtain a starting cell density of ˜10^6 cells/ml. • 4.
# After 24 hours the fluorescence of each well was measured at Excitation 492 nm, Emission 595 nm.
# Percent inhibition by a given compound was calculated as follows: Percent inhibition=100−([well fluorescence-average background fluorescence]/[DMSO control−average background fluorescence]×100).
# [4] = Oral range finding toxicity and toxicokinetic study in male cynomolgus monkeys; assay type: in vivo, Cynomolgus monkeys (Macaca Fascicularis)
# Excerpt: Cynomolgus monkeys (Macaca Fascicularis) were obtained from Primus Bio-Resources Inc. of PinCourt, Quebec, Canada. Cynomolgus monkeys were chosen because they are a non-rodent species that is commonly used for nonclinical toxicity evaluations.
# Eight (2 naive and 6 non-naïve) males were used in the study. The animals were young adults and weighed between 2 to 4 kg at the onset of dosing.
# The first day of dosing was designated as Day 1 of the study. The actual volume administered to each animal was calculated and adjusted based on the most recent body weight of each animal.
# Cage-side clinical signs (ill health, behavioral changes etc.) were recorded at least once daily during the study.
# Body weights were recorded for all animals prior to group assignment and on Days 1 (prior to dosing), 3 and 7 as well as terminally prior to necropsy (fasted).
# Electrocardiograms (bipolar limb leads I, II and III, and augmented unipolar leads aVR, aVL and aVF) were obtained for all monkeys once during the pre-treatment period and again on Day 7 (post-dosing).
# The tracings were assessed for gross changes indicative of cardiac electrical dysfunction. The potential presence of abnormalities involving heart rate (lead II), sinus and atrioventricular rhythm or conductivity were determined. Heart rate, PR interval, QRS duration, QT and QTc intervals values were measured.
# A series of 7 blood samples (approximately 0.5 mL each) were collected from each monkey on Days 1 and 7 at the following time points: predose, 30 minutes and 2, 3, 6, 12 and 24 hours post-dose. […] Tubes were placed on wet ice until ready for processing. […]
# The following parameters were measured on blood samples collected into EDTA anticoagulant: red blood cell count, mean corpuscular hemoglobin (calculated), hematocrit (calculated), mean corpuscular volume, hemoglobin, morphology of cells, white blood cell count, platelet count, white blood cell differential (absolute), reticulocyte (absolute and percentage) and mean corpuscular hemoglobin concentration (calculated).
# Activated partial thromboplastin time and prothrombin time were measured on blood samples collected into citrate anticoagulant.
# The following parameters were measured on blood samples collected into tubes containing clotting activator: a/g ratio (calculated), creatinine, alanine aminotransferase, globulin (calculated), albumin, glucose, alkaline phosphatase, phosphorus (inorganic), aspartate aminotransferase, potassium, bilirubin (total), sodium, calcium, total protein, chloride, triglycerides, cholesterol (total), urea, gamma glutamyltransferase and sorbitol dehydrogenase.
# The following parameters were measured on urine samples: bilirubin, protein, blood, sediment microscopy, color and appearance, specific gravity, glucose, urobilinogen, ketones, volume and pH. […]
# [5] = Pharmacokinetics, rat IV study; conditions: male Sprague Dawley rats, plasma, analyte as labelled; for AUC: male, Sprague Dawley, rat, iv
# [6] = system: Stenotrophomonas maltophilia; assay: Gyrase MIC against Gram negatives, microdilution broth method (Protocol 2); assay type: cell-based
# M. kansasii = assay: MIC determination procedure for Mycobacterium species (Protocol 4); assay type: cell-based
# [7] = Conversion of Compound W to Compound 23 in liver S9 fractions; assay type: in vitro ADME; conditions: hepatic and intestinal S9 fractions from rats, dogs, monkeys and humans
# Method: The incubations were done for 0, 5, 10, 15, 30, 45 or 60 minutes. The formation of Compound 23 was quantified by LC/MS-MS and data were fitted to the Michaelis Menten equation.
# [8] = ATCC35541, Neisseria gonorrhoeae ATCC 35541
# [9] = ATCC49226, Neisseria gonorrhoeae ATCC 49226
# [10] = M. tuberculosis Erdman ATCC 35801, read-out: MIC
# [11] = M. tuberculosis Erdman ATCC 35801 with Mouse Serum
# [12] = Compound W 1 mg/kg single IV bolus in D5W
# [13] = Compound W 5 mg/kg single IV bolus in D5W
# [14] = 1 mg/kg, AUC, Compound W 1 mg/kg single IV bolus in D5W
# [15] = 1 mg/kg, AUCextrap, Compound W 1 mg/kg single IV bolus in D5W
# [16] = 5 mg/kg, AUC, Compound W 5 mg/kg single IV bolus in D5W
# [17] = 5 mg/kg, AUCextrap, Compound W 5 mg/kg single IV bolus in D5W
Structure (SMILES),MIC (Neisseria gonorrhoeae; [8]) [µg/mL],MIC (Neisseria gonorrhoeae; [9]) [µg/mL],MIC90 (Neisseria gonorrhoeae) [µg/mL],MIC Range (Neisseria gonorrhoeae),MIC90 [2] [µg/mL],MIC90 (Peptostreptococcus spp.) [µg/mL],MIC (Mycobacterium avium; M. avium 3404.4) [µg/mL],MIC (Mycobacterium avium; M. avium Far) [µg/mL],MIC (Mycobacterium avium; Mycobacterium avium 103) [µg/mL],"MIC [3, 10] [µg/mL]","MIC [3, 11] [µg/mL]","Cl_obs [5, 12] [mL/min/kg]","Vss_obs [5, 12] [L/kg]","Cl_obs [5, 13] [mL/min/kg]","Vss_obs [5, 13] [L/kg]","AUC [5, 14] [ng·h/mL]","AUC [5, 15] [ng·h/mL]","AUC [5, 16] [ng·h/mL]","AUC [5, 17] [ng·h/mL]",further results
"CCNC(=O)Nc1nc2cc(-c3cnc(C(C)(C)O)nc3)cc([C@H]3CCCO3)c2[nH]1 [Compound 13, methanesulfonic acid salt of 1-ethyl-3-[5-[2-(1-hydroxy-1-methyl-ethyl)pyrimidin-5-yl]-7-[(2R)-tetrahydrofuran-2-yl]-1H-benzimidazol-2-yl]urea]",1.3,2.3,1,0.5-1^ μg/ml,> 16,> 16,0.94,0.94,0.47,0.045,2,–,–,–,–,–,–,–,–,"MIC90 [1]: 0.25 µg/mL; MIC Range [1]: 0.06 to 0.5 µg/mL; MIC (Nocardia caviae; Nocardia caviae 2497, Protocol 4, read-out: MIC): 2 µg/mL"
"CCNC(=O)Nc1nc2cc(-c3cnc(C(C)(C)O)nc3)c(F)c([C@H]3CCCO3)c2[nH]1 [Compound 23, 1-ethyl-3-[6-fluoro-5-[2-(1-hydroxy-1-methyl-ethyl)pyrimidin-5-yl]-7-[(2R)-tetrahydrofuran-2-yl]-1H-benzimidazol-2-yl]urea]",–,–,–,–,–,–,–,–,–,–,–,54.9,3.8,27.3,4.08,306,310,3040,3060,"clinical signs, body weights, electrocardiography, clinical pathology, organ weights ([4]; doses up to 200 mg/kg/day): no clinical signs, or changes in body weights, electrocardiography parameters, clinical pathology parameters, or organ weights; macroscopic or microscopic findings ([4]; doses up to 200 mg/kg/day): no macroscopic or microscopic findings; no observed effect level (NOEL) ([4]; male Cynomolgus monkeys, oral gavage once per day for 7 days): 200 mg/kg/day; exposures for different dosage levels ([4]; male Cynomolgus monkeys, toxicokinetics): dose related"
"CCNC(=O)Nc1nc2cc(-c3cnc(C(C)(C)O)nc3)c(F)c([C@H]3CCCO3)c2[nH]1 [Compound 23A, methanesulfonic acid salt of 1-ethyl-3-[6-fluoro-5-[2-(1-hydroxy-1-methyl-ethyl)pyrimidin-5-yl]-7-[(2R)-tetrahydrofuran-2-yl]-1H-benzimidazol-2-yl]urea]",0.42,1,0.25,0.12 to 0.25 µg/mL,16,> 16,0.23,0.23,0.18,0.03,0.5,–,–,–,–,–,–,–,–,"MIC ([6]; ATCCBAA84, Stenotrophomonas maltophilia ATCC BAA-84): > 8 µg/mL; MIC ([6]; Stenotrophomonas maltophilia ATCC13637): > 8 µg/mL; MIC Range [2]: 0.12 to 16 µg/mL; MIC (Nocardia caviae): 0.125 µg/mL; MIC (M. kansasii; M. kansasii 303): 0.03 µg/mL; MIC (M. kansasii; M. kansasii 379): < 0.015 µg/mL"
"CCNC(=O)Nc1nc2cc(-c3cnc(C(C)(C)OP(=O)([O-])[O-])nc3)c(F)c([C@H]3CCCO3)c2[nH]1.[Na+].[Na+] [Compound W, disodium (R)-2-(5-(2-(3-ethylureido)-6-fluoro-7-(tetrahydrofuran-2-yl)-1H-benzo[d]imidazol-5-yl)pyrimidin-2-yl)propan-2-yl phosphate]",–,–,–,–,–,–,–,–,–,–,–,46.7,0.38,84.6,5.8,416,419,1110,1120,conversion of Compound W to Compound 23 [7]: rapidly converts to Compound 23
